Columns and labels:
guanosine [1] = experiment: Reversibility of kethoxal derivatives by adjusting pH (kethoxal-guanosine adduct dissociation); type: physicochemical
guanosine [2] = experiment: Reversibility of kethoxal derivatives using GTP for competition (LCMS of free guanosine); type: physicochemical; conditions: 1:1 ratio
Cells = experiment: Cell permeability and radical-mediated biotinylation of RNA from treated cells (dot blot); type: cell-based; conditions: cells treated 10 min, versus control sample
Procedure: A second set of test were performed to test cell permeability of phenol-kethoxal and diphenol-kethoxal and if the labeling enhances radical-mediated biotinylation. Cells were treated with phenol-kethoxal and diphenol-kethoxal for 10 min, respectively, and RNA isolated from treated cells. An in vitro biotinylation reaction was performed by mixing these kethoxal derivative-labeled RNAs with biotin-phenol, horseradish peroxidase (HRP), and H2O2, see FIG. 4. HRP is an enzyme that mimics APEX with higher radical generation activity in vitro. The biotinylated RNAs were purified and subjected to dot blot analysis.

[3] = tested on: 12-mer synthetic RNA oligo containing four guanine bases; experiment: Labeling activity of phenol-kethoxal and diphenol-kethoxal on 12-mer synthetic RNA oligo (MALDI-TOF); type: biochemical; conditions: 10 min incubation
Procedure: To test the labeling activity of phenol-kethoxal and diphenol-kethoxal, the two compounds were incubated with a 12-mer synthetic RNA oligo containing four guanine bases, respectively. After 10 min, the reactions were cleaned-up and analyzed by MALDI-TOF.

guanosine [4] = experiment: Reactivity of kethoxal derivatives with guanosine (conversion rates of guanosine); type: biochemical
[5] = pH = 5.8, 4 h after adjusting from pH 10.1, 1:1 ratio
[6] = pH = 10.1, 10 min, kethoxal derivative and guanosine 1:1
[7] = pH = 7.0, 10 min, excess GTP added after 10 min
[8] = pH = 7.0, 2 h, excess GTP competitor
[9] = pH = 7.0, 24 h, excess GTP competitor
[10] = pH = 5.8, 24 h after adjusting from pH 10.1, 1:1 ratio
[11] = pH = 5.8, 10 min after adjusting from pH 10.1, 1:1 ratio

SMILES | Conversion of guanosine (guanosine [1]; [5]) | Conversion of guanosine (guanosine [1]; [6]) | Conversion of guanosine under competition condition (guanosine [2]; [7]) | Conversion of guanosine under competition condition (guanosine [2]; [8]) | Conversion of guanosine under competition condition (guanosine [2]; [9]) | Conversion of guanosine (guanosine [1]; [10]) | also measured
[N-]=[N+]=NCCOCCC(=O)C=O [drawing 72] | 16.6% | 19.7% |  |  |  |  | 
[N-]=[N+]=NCCOCCC(=O)C=O [drawing 87] |  |  | 41.3% | 12.6% | 11.2% |  | 
[N-]=[N+]=NCCOCC(=O)C=O [drawing 79] |  |  | 47.4% | 29.7% | 27.4% |  | 
CC(OCCn1cc(-c2ccc(O)cc2)nn1)C(=O)C=O (stereo not drawn) [phenol-kethoxal] |  |  |  |  |  |  | Biotin signal of RNA from treated cells after HRP/biotin-phenol/H2O2 biotinylation (Cells): stronger biotin signals compared with the control sample; Labeling activity on RNA oligo [3]: label the oligo efficiently, with all four guanines on all oligo molecules modified
CC(Br)C(=O)C=O (stereo not drawn) [drawing 67] | 64.3% | 62.7% |  |  |  | 62.9% | 
[N-]=[N+]=NCCCC(=O)C=O [drawing 70] | 19.0% | 30.2% |  |  |  | 14.7% | 
CC(C(=O)C=O)N(C)C(=O)CN=[N+]=[N-] (stereo not drawn) [drawing 86] |  |  | 41.8% | 26.1% | 23.4% |  | 
CC(N=[N+]=[N-])C(=O)C=O (stereo not drawn) [drawing 81] |  |  | 56.5% | 40.9% |  |  | 
O=CC(=O)Cc1ccccc1 [drawing 91] |  |  | 21.8% | 9.6% | 8.4% |  | 
CC(OCCn1cc(-c2ccc(O)c(O)c2)nn1)C(=O)C=O (stereo not drawn) [diphenol-kethoxal] |  |  |  |  |  |  | Biotin signal of RNA from treated cells after HRP/biotin-phenol/H2O2 biotinylation (Cells): stronger biotin signals compared with the control sample; Labeling activity on RNA oligo [3]: label the oligo efficiently, with all four guanines on all oligo molecules modified
CC(Br)C(=O)C=O (stereo not drawn) [drawing 82] |  |  | 46.2% | 38.2% | 18.6% |  | 
CC(C)(OCCN=[N+]=[N-])C(=O)C=O [drawing 78] |  |  | 51.6% | 55.9% | 33.6% |  | 
CC(N=[N+]=[N-])C(=O)C=O (stereo not drawn) [drawing 66] | 65.2% | 65.9% |  |  |  | 58.7% | Conversion of guanosine (guanosine [1]; [11]): 65.6%
CC(C(=O)C=O)N(C)C(=O)CN=[N+]=[N-] (stereo not drawn) [drawing 71] | 31.9% | 35.6% |  |  |  | 26.5% | 
CC(OC(=O)CN=[N+]=[N-])C(=O)C=O (stereo not drawn) [drawing 80] |  |  | 54.4% | 44.6% | 37.5% |  | 
CC(OCCN=[N+]=[N-])C(=O)C=O (stereo not drawn) [drawing 62] | 80.2% | 79.8% |  |  |  | 81.8% | Conversion of guanosine (guanosine [1]; [11]): 79.8%
[N-]=[N+]=NCCCC(=O)C=O [drawing 85] |  |  | 46.2% | 21.0% | 22.1% |  | 
[N-]=[N+]=NCCOC(F)C(=O)C=O (stereo not drawn) [drawing 74] | 57.1% | 46.2% |  |  |  | 58.2% | Conversion of guanosine (guanosine [1]; [11]): 50.1%

SMILES | Conversion of guanosine (guanosine [1]; [5]) | Conversion of guanosine (guanosine [1]; [6]) | Conversion of guanosine under competition condition (guanosine [2]; [7]) | Conversion of guanosine under competition condition (guanosine [2]; [8]) | Conversion of guanosine under competition condition (guanosine [2]; [9]) | Conversion of guanosine (guanosine [1]; [10]) | also measured
[N-]=[N+]=NCCOCC(=O)C=O [drawing 64] | 75.0% | 74.6% |  |  |  | 76.1% | 
O=CC(=O)c1ccccc1 [drawing 88] |  |  | 25.7% | 12.3% | 4.4% |  | 
O=CC(=O)c1ccc([N+](=O)[O-])cc1 |  |  | 48.0% | 13.5% |  |  | 
[N-]=[N+]=NCCOC(F)(F)C(=O)C=O [drawing 90] |  |  |  |  |  |  | Conversion of guanosine under competition condition (guanosine [2]; pH = 10.1, 10 min, excess GTP added after 10 min): 51.2% (pH = 10.1); Conversion of guanosine under competition condition (guanosine [2]; pH = 10.1, 2 h, excess GTP competitor): 42.4% (pH = 10.1); Conversion of guanosine under competition condition (guanosine [2]; pH = 10.1, 24 h, excess GTP competitor): 22.2% (pH = 10.1)
CC(OCCN=[N+]=[N-])C(=O)C=O (stereo not drawn) [drawing 77] |  |  | 71.4% | 60.8% | 28.9% |  | 
[N-]=[N+]=NCCOC(F)(F)C(=O)C=O [drawing 75] | 55.1% | 41.5% |  |  |  | 54.7% | Conversion of guanosine (guanosine [1]; [11]): 49.2%
[N-]=[N+]=NCCCC(=O)C=O [drawing 54] |  |  |  |  |  |  | Conversion rate of guanosine (guanosine [4]; pH = 7.0, S1:S2 = 1:1): 40.8%; Conversion rate of guanosine (guanosine [4]; pH = 7.0, S1:S2 = 1:2): 63.2%; Conversion rate of guanosine (guanosine [4]; pH = 7.0, S1:S2 = 1:4): 87.2%; Conversion rate of guanosine (guanosine [4]; pH = 7.0, S1:S2 = 2:1): 19.8%
[N-]=[N+]=NCCOC(F)(F)C(=O)C=O [drawing 59] |  |  |  |  |  |  | Conversion rate of guanosine (guanosine [4]; pH = 7.0, S1:S2 = 1:0): 9.8%; Conversion rate of guanosine (guanosine [4]; pH = 7.0, S1:S2 = 1:1): 1.4%; Conversion rate of guanosine (guanosine [4]; pH = 7.0, S1:S2 = 1:2): 1.9%; Conversion rate of guanosine (guanosine [4]; pH = 7.0, S1:S2 = 1:4): 3.8%; Conversion rate of guanosine (guanosine [4]; pH = 7.0, S1:S2 = 2:1): 0%
[N-]=[N+]=NCCOCCC(=O)C=O [drawing 41] |  |  |  |  |  |  | Conversion rate of guanosine (guanosine [4]; pH = 7.8, S1:S2 = 1:1): 41.1%; Conversion rate of guanosine (guanosine [4]; pH = 7.8, S1:S2 = 1:2): 60.0%; Conversion rate of guanosine (guanosine [4]; pH = 7.8, S1:S2 = 1:3): 66.4%; Conversion rate of guanosine (guanosine [4]; pH = 7.8, S1:S2 = 1:5): 73.6%; Conversion rate of guanosine (guanosine [4]; pH = 7.8, S1:S2 = 2:1 (S1 guanosine, S2 kethoxal derivative)): 25.2%
O=CC(=O)c1ccccc1 [drawing 73] | 10.7% | 28.3% |  |  |  | 12.7% | Conversion of guanosine (guanosine [1]; [11]): 12.2%
CC(OC(=O)CN=[N+]=[N-])C(=O)C=O (stereo not drawn) [drawing 65] | 77.3% | 75.5% |  |  |  | 77.2% | 
CC(N=[N+]=[N-])C(=O)C=O (stereo not drawn) [drawing 50] |  |  |  |  |  |  | Conversion rate of guanosine (guanosine [4]; pH = 7.0, S1:S2 = 1:1): 46.7%; Conversion rate of guanosine (guanosine [4]; pH = 7.0, S1:S2 = 1:2): 79.2%; Conversion rate of guanosine (guanosine [4]; pH = 7.0, S1:S2 = 1:4): 95.3%; Conversion rate of guanosine (guanosine [4]; pH = 7.0, S1:S2 = 2:1): 22.0%
[N-]=[N+]=NCCOC(F)C(=O)C=O (stereo not drawn) [drawing 89] |  |  | 6.4% | 18.6% | 22.8% |  | 
CC(OC(=O)CN=[N+]=[N-])C(=O)C=O (stereo not drawn) [drawing 49] |  |  |  |  |  |  | Conversion rate of guanosine (guanosine [4]; pH = 7.0, S1:S2 = 1:1): 50.1%; Conversion rate of guanosine (guanosine [4]; pH = 7.0, S1:S2 = 1:2): 81.3%; Conversion rate of guanosine (guanosine [4]; pH = 7.0, S1:S2 = 2:1): 29.5%
CC(C)(OCCN=[N+]=[N-])C(=O)C=O [drawing 63] | 77.6% | 77.0% |  |  |  | 80.3% | 
CC(C)(OCCN=[N+]=[N-])C(=O)C=O [drawing 47] |  |  |  |  |  |  | Conversion rate of guanosine (guanosine [4]; pH = 7.0, S1:S2 = 1:1): 46.7%; Conversion rate of guanosine (guanosine [4]; pH = 7.0, S1:S2 = 1:2): 76.6%; Conversion rate of guanosine (guanosine [4]; pH = 7.0, S1:S2 = 2:1): 23.6%
CCN(CC)C(C)C(=O)C=O (stereo not drawn) |  |  | 66.9% | 66.1% | 36.3% |  | 

Reference: patent US20220143198A1, “COMPOSITIONS AND METHODS RELATED TO TETHERED KETHOXAL DERIVATIVES” (The University of Chicago, priority 2019, published 2022)
